Test results published in patent US20150252048A1, “SUBSTITUTED N-(3-PYRIMIDIN-4-YL)PHENYL)ACRYLAMIDE ANALOGS AS TYROSINE RECEPTOR KINASE BTK INHIBITORS” (UNIVERSITY OF UTAH RESEARCH FOUNDATION, priority 2012, published 2015).
Like-named read-outs stand apart in the source and are kept apart here.

Legend:
Microsomal stability = type: in vitro ADME, rat; details: for Compound Remaining: rat microsomes 0.5 mg protein/mL, 1 μM
Protocol: Data were also obtained for the stability of Compound 3 when incubated with a microsomal preparation. Drug metabolism can occur, at least in part, in cellular microsomes, and thus the assay assesses the stability of drug to metabolic modification. The concentration of compound 3 was 1 μM in the assay system and the indicated microsomes were present at 0.5 mg total protein per milliliter. The concentration of intact drug was determined at the indicated timepoints using a LC-MS/MS assay. The enzyme activity of the microsomes used in this study were assessed using a positive control, testosterone.

451 kinase types = assay: KINOMEscan Assay Panel broad kinase screen; type: binding, human; details: screen against 451 kinase types
Protocol: The kinase selectivity of a representative disclosed compound, compound 3 (N-(3-(6-((3-morpholinophenyl)amino)-1H-pyrazolo[3,4-d]pyrimidin-4-yl)phenyl)acrylamide), which corresponds to compound 3 in Table I, was evaluated in multiple kinase assays. A broad based screen was conducted against 451 kinase types using the KINOMEscan Assay Panel. The results were able to map 14 interactions with an S-Score(35)=0.03. The interactions are highlighted in FIG. 4 (panels A and B), and are indicated by the dark circles in the figure.

Pharmacokinetics in rat = type: in vivo, male Sprague Dawley rats
Protocol: The pharmacokinetic behavior of a representative disclosed compound, compound 3 (N-(3-(6-((3-morpholinophenyl)amino)-1H-pyrazolo[3,4-d]pyrimidin-4-yl)phenyl)acrylamide), which corresponds to compound 3 in Table I, was also evaluated in rat. A study was conducted using three male Sprague Dawley rats in each group as shown below:
The solution formulations were prepared as follows: (A) intravenous route (“i.v.”): a weighed quantity of 3 (10.45 mg) was transferred into a 10 mL clean glass vial. To this 0.231 mL of ethanol (4.5%) was added, vortexed and sonicated. To this 1.028 mL of propylene glycol (20%) was added, vortexed and sonicated. 1.543 mL of PEG400 (30%) was added, vortexed and sonicated. Finally 2.340 mL of water (45.5%) was added gradually, vortexed and sonicated to make a solution of 2 mg/mL concentration. The final solution was filtered using syringe filter (0.22 μm).; and (B) a weighed quantity of SC-1344 (27.43 mg) was transferred into a 10 mL clean glass vial. To this 0.304 mL of ethanol (4.5%) was added, vortexed and sonicated. To this 1.350 mL of propylene glycol (20%) was added, vortexed and sonicated. 2.024 mL of PEG400 (30%) was added, vortexed and sonicated. Finally 3.070 mL of water (45.5%) was added gradually, vortexed and sonicated to make a solution of 4 mg/mL concentration. The final solution was filtered using syringe filter (0.22 μm).
Bioanalysis was performed using fit-for-purpose LC-MS/MS method for the quantification of 3 in rat plasma samples. The calibration curve (CC) for the method consisted of nine non-zero calibration standards along with a double blank and zero standard samples. Study samples were analyzed along with two sets of quality control samples (6 QC samples; low, medium and high QC samples in triplicate). Briefly, the LC-MS/MS method used the following parameters: a) gradient mobile phase (Pump A: 0.1% Formic acid in water; Pump B: 100% methanol); b) XBridge C8, 50×4.6 mm, 3.5μ (Waters) column; c) 10 μL injection volume; d) 1.00 mL/min flow rate; e) 3.50 min run time; f) 10° C. sample cooler temperature; and g) 40° C. column oven temperature. The sample calibration curve was 1.02-1023 ng/mL, with an internal standard (telmisartan) at 0.2 μg/mL. Briefly, biological samples were prepared as follows: 50 μL of sample was mixed with 150 μL of internal standard, then mixture was vortexed for 5 min at 800 rpm, followed by centrifugation at 4000 rpm for 5 min; 150 μL of the sample supernatant was transferred into a separate tube and diluted with 75 μL of methanol: water (1:1), followed by injection into LC/MS/MS.
Plasma pharmacokinetic parameters were calculated using the non-compartmental analysis tool of Phoenix software (Version 6.3) and were determined from individual animals in each group. The area under the plasma concentration-time curve (AUC0-t and AUCinf), elimination half-life (T1/2), clearance (CL), volume of distribution (Vss) and Mean residence time (MRT) were calculated from intravenous group. The peak plasma concentration (Cmax), time to achieve peak plasma concentration (Tmax), AUC0-t and AUCinf, and absolute oral bioavailability (F) were calculated from the oral group.
The mean plasma concentration-time profiles are shown in FIGS. 10 and 11, i.e. the mean concentration values of the individual values obtained from each rat in the study group at the indicated time points.

[1] = Glutathione (GSH) trapping assay; type: in vitro ADME; details: peak area vs intact compound 3 at time zero, 1 mg/mL human liver microsomal protein
Text: Drug metabolism in vivo can lead to reactive intermediates that form covalent adducts with cellular materials. Such covalent binding of reactive metabolites is potentially involved in severe adverse drug reactions. However, the covalent binding assay is of low throughput and costly, a qualitative trapping assay measuring trapping of drug glutathione conjugates in human liver microsomes can provide information on the propensity of a drug candidate to be involved in covalent binding reactions. A glutathione (GSH) trapping assay was carried out on representative disclosed compound, compound 3, and the results are shown in Table VIII. […] The assay was carried out with 1 mg total human liver microsomal protein per milliliter.

In the case of C=CC(=O)Nc1cccc(-c2nc(Nc3cccc(N4CCOCC4)c3)nc3[nH]ncc23)c1 [Compound 3, N-(3-(6-((3-morpholinophenyl)amino)-1H-pyrazolo[3,4-d]pyrimidin-4-yl)phenyl)acrylamide], the half-life at 1 μM (Microsomal stability; rat microsomes) is reported as 0.233 h, the “Compound Remaining” value (Microsomal stability; 0 min) is reported as 100 % of initial amount and the “Compound Remaining” value (Microsomal stability; 10 min) is reported as 55.2 % of initial amount. For the same compound, the “Compound Remaining” value (Microsomal stability; 20 min) was 33.6 % of initial amount, the “Compound Remaining” value (Microsomal stability; 30 min) was 20.5 % of initial amount and the “Compound Remaining” value (Microsomal stability; 60 min) was 5.13 % of initial amount. For the same compound, the microsomal CLint at 1 μM (Microsomal stability; rat microsomes, read-out: CLinit (intrinsic clearance)) was 100 µL/min/mg, the “Number of interactions mapped” value (451 kinase types) was 14 and the “S-Score(35)” value (451 kinase types) was 0.03. The AUC(0-t) (Pharmacokinetics in rat; IV 5 mg/kg, solution, 5 mg/kg) was 1063 ng·h/mL, the CL (Pharmacokinetics in rat; IV 5 mg/kg, solution, 5 mg/kg) was 79.7 mL/min/kg and the T1/2 (Pharmacokinetics in rat; IV 5 mg/kg, solution, 5 mg/kg) was 2.71 h. For the same compound, the Vss (Pharmacokinetics in rat; IV 5 mg/kg, solution, 5 mg/kg) was 7.91 L/kg, the “F (absolute oral bioavailability)” value (Pharmacokinetics in rat; PO 20 mg/kg vs IV 5 mg/kg, AUC0-t and nominal doses used) was 2.44% and the Cmax (Pharmacokinetics in rat; PO 20 mg/kg, solution, 20 mg/kg) was 23.1 ng/mL. The AUC(0-inf) (Pharmacokinetics in rat; male, Sprague Dawley, plasma, IV 5 mg/kg, solution) was 1070 ng·h/mL, the Cmax (Pharmacokinetics in rat; male, Sprague Dawley, plasma, IV 5 mg/kg, solution, read-out: Cmax (back-extrapolated concentration)) was 1840 ng/mL and the AUC(0-inf) (Pharmacokinetics in rat; male, Sprague Dawley, plasma, PO 20 mg/kg, solution, one animal data) was 254 ng·h/mL. For the same compound, the Tmax (Pharmacokinetics in rat; male, Sprague Dawley, plasma, PO 20 mg/kg, solution, read-out: Tmax (median)) was 2 h, the AUC(0-t) (Pharmacokinetics in rat; male, Sprague-Dawley, plasma, PO 20 mg/kg, solution, read-out: AUC0-t) was 104 ng·h/mL and the “% Compared to Parent Compound, 0 min” value ([1]; 0 min) was 100%. The “% Compared to Parent Compound, 60 min” value ([1]; 60 min) was 47%.
